Values quoted from earlier work as cited in US20200268817A1, “CANNABINOID COMPOSITIONS, METHODS OF MANUFACTURE AND USE THEREOF” (priority 2016, published 2020).
Where two headings read alike, the source gives them in different places.

Tests used:
CB2 = CB2 (Homo sapiens, UniProt P34972)
schizophrenic patients = details: over six weeks
[1] = system: patients with acute paranoid schizophrenia; details: for psychotic symptoms (Brief Psychiatric Rating Scale, Positive and Negative Syndrome Scale): after 2 and 4 weeks, 42 patients
[2] = system: synovial cells isolated from mice
prostaglandin E2 = details: more potent than aspirin
[3] = system: peripheral blood mononuclear cells; details: added to peripheral blood mononuclear cells in vitro
patients [4] = details: low cannabinoid dosages; vs placebo
patients [5] = details: Phase III study (31)
[6] = system: advanced cancer patients with substantial appetite loss; details: 469 advanced cancer patients; p=0.0001
advanced cancer patients = details: patients receiving chemotherapy; compared to placebo

CB2, sequence (P34972 whole entry, species assumed): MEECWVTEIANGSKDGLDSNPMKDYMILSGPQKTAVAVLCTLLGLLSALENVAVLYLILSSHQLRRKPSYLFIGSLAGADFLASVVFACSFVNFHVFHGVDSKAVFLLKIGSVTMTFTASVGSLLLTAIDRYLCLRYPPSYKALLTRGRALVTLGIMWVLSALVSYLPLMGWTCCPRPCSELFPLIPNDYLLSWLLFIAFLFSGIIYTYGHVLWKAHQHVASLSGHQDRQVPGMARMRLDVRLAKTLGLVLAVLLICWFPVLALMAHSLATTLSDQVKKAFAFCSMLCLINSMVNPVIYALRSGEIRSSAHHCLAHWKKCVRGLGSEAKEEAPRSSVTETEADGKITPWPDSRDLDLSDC

SMILES: C=C1CC/C=C(\C)CC[C@@H]2[C@@H]1CC2(C)C [Beta caryophyllene, Beta-caryophyllene]
- binding to CB2 (CB2): binds
- TNF alpha and IL-lb expression (human peripheral blood): inhibits

SMILES: C=C(C)[C@@H]1CCC(C)=C[C@H]1c1c(O)cc(CCCCC)cc1O [CBD, Cannabidiol]
- positive and cognitive symptoms (schizophrenic patients; add-on to anti-psychotic, 88 patients): improved positive and cognitive symptoms
- adverse effects (schizophrenic patients): no severe adverse effects
- affinity for CB2 receptor (CB2): very low affinity
- side effects (extrapyramidal symptoms, increase in prolactin, weight gain) compared to amisulpride ([1]; 4 week trial): significantly fewer side effects
- psychotic symptoms (Brief Psychiatric Rating Scale, Positive and Negative Syndrome Scale) [1]: significant decrease of psychotic symptoms
- release of TNF-alpha [2]: suppressed

SMILES: COc1cc(-c2cc(=O)c3c(O)c(C/C=C(\C)CCC=C(C)C)c(O)cc3o2)ccc1O [Cannaflavin A]
- potency as inhibitor of prostaglandin E2 relative to aspirin (prostaglandin E2): 30 ×

SMILES: O=c1cc(-c2ccc(O)c(O)c2)oc2cc(O)cc(O)c12 [Luteolin]
- production of TNFa, IL-lb, and IL-6 [3]: suppress

SMILES: CCCCCc1cc(O)c2c(c1)OC(C)(C)[C@@H]1CCC(C)=C[C@@H]21 [THC, Tetrahydrocannabinol]
- differences between the groups in improvement in appetite or weight-gain (patients [4]): No significant differences
- start of psychotropic effects (inhaled): within seconds to a few minutes
- time to maximum psychotropic effects (inhaled): 15 to 30 min
- time until psychotropic effects taper off (inhaled): 2 to 3 h
- delay until psychotropic effects set in (oral ingestion): 30 to 90 min
- time to maximum psychotropic effects (oral ingestion): 120 to 180 min
- duration of psychotropic effects (oral ingestion, depending on dose and specific effect): 4 to 12 h

SMILES: CCN1CCCC1CNC(=O)c1cc(S(=O)(=O)CC)c(N)cc1OC (centres unmarked) [amisulpride]
- psychotic symptoms (Brief Psychiatric Rating Scale, Positive and Negative Syndrome Scale) [1]: significant decrease of psychotic symptoms

SMILES: CCCCCc1cc(O)c2c(c1)OC(C)(C)[C@@H]1CCC(C)=C[C@@H]21 [dronabinol]
- true response (weight gain of >=10% from baseline weight) (patients [5]): 3%
- patients reporting appetite improvement [6]: 49%
- taste and smell perception, appetite and caloric intake (advanced cancer patients): improvement
- patients with decreased nausea (cancer patients; cancer patients, placebo 7%): 20%
- patients with increased appetite (cancer patients; cancer patients, placebo 8%): 38%
- patients who gained >=2 kg (cancer patients; placebo 10.5%, did not reach significance): 22%

SMILES: CC(=O)O[C@]1(C(C)=O)CC[C@H]2[C@@H]3C=C(C)C4=CC(=O)CC[C@]4(C)[C@H]3CC[C@@]21C [megestrol acetate]
- true response (weight gain of >=10% from baseline weight) (patients [5]): 11%
- patients reporting appetite improvement [6]: 75%
